According to US4452812A, “Organic complex of platinum, its preparation and its use for treating malignant tumors” (Sanofi, priority 1980, dated 1984):
“Also recorded” adds a separate entry of the source.

What was measured:
sarcoma S 180 = experiment: Anti-tumour activity, sarcoma S 180 ascite, i.p. graft, i.p. treatment; assay type: in vivo, mouse (Swiss female); settings: for ILS: single i.p. on D1
Experimental: Swiss female mice (Evic-Ceba, Bordeaux) of 20 to 22 g
10^6 cells intraperitoneally grafted on D0
intraperitoneal treatment 24 hours later, D1, in one single injection.
(§1) The solutions of these compounds were prepared extemporaneously.

rat = experiment: Acute toxicity in the rat; assay type: in vivo, rat (Sprague-Dawley)
Experimental: (§2) Acute toxicity, one single injection of the compound, was measured using Swiss female mice (Evic-Ceba, Bordeaux) of 21 to 23 g. and Sprague-Dawley rats. Ten animals were treated for each dose studied.

leukemia L 1210 [1] = experiment: Anti-tumour activity, leukemia L 1210, s.c. graft, i.p. treatment; assay type: in vivo, mouse; settings: s.c. graft 10^6 cells
Experimental: (§3) I. […] L 1210: Ascite and Solid
(c) s.c. graft--i.p. treatment
10^6 cells were grafted under the skin behind the head on D0 and intraperitoneal treatment was carried out in one single injection either on D1 or on D4.
as §1

[2] = system: baboon (ear, Corti organ); experiment: Ototoxicity test in the baboon (auditory potentials, echocochleography); assay type: in vivo; settings: baboon No 3, 200 mg/kg, D31
Experimental: An ototoxicity test was carried out on baboon No. 3 (200 mg/kg) on D31. This test comprised the following: (a) Registering the auditory potentials when the ear was submitted to 1500 stimuli at 90, 80, 70, 60, 50, 40, 30, 20 and 10 decibels. The results gave the latency times for conduction from the ear to the brain. (b) Performing the same kind of test by echocochleography. This analysis was much more accurate than the previous one because it was only carried out in the Corti organ (cochlea). Frequencies of 8000, 4000, 2000 and 1000 Hertz at 90, 70, 50, 30, 20 and 10 decibels were used. Measurements were made using a Racia Medelec Empled MK4 1026. […] The properties of PHIC compared to those of PDD can be summarized as follows: […]

leukemia L 1210 [3] = experiment: Anti-tumour activity, leukemia L 1210, i.p. graft, i.v. treatment; assay type: in vivo, mouse; settings: for ILS: i.p. graft 10^5 cells
Experimental: as §3
(b) i.p. graft--i.v. treatment
as §1

[4] = system: renal and hepatic parenchyma; experiment: Renal and hepatic toxicity; assay type: in vivo, mouse (Swiss female)
Experimental: It was thus of interest to compare the effects of the novel compound of the invention with those of the already known compounds listed above on the kidney and the liver, i.e. the organs in which the greatest amount of platinum accumulates.
Swiss female mice (Evic-Ceba, Bordeaux) of 20 to 22 g were treated by intraperitoneal route D0 and then sacrificed on D1, D4 and D10.
Slices 5 microns thick were coloured with hemalun eosine stain.

mouse = experiment: Acute toxicity in the mouse; assay type: in vivo, mouse (Swiss female); settings: for loss of weight on the 4th day: i.p.
Experimental: as §2

leukemia L 1210 [5] = experiment: Anti-tumour activity, leukemia L 1210, i.p. graft, i.p. treatment
Experimental: […] females (CNRS, Orleans) of 20 to 22 g
(a) i.p. graft--i.p. treatment
10^5 cells were grafted intraperitoneally on D0 and intraperitoneal treatment was carried out 24 hours later, D1, in one single injection.
PHD and PHM were suspended in a 4% Klucel (hydroxy propyl cellulose) solution (the word "Klucel" is a registered trademark of Hercules Incorporated, Delaware, U.S.A.).
The solutions of these compounds were prepared extemporaneously. The increase in life span, ILS (%), were calculated in comparison with the controls by the following formula: [formula] Deaths were recorded until day 30 for L 1210 tumour and until day 60 for S180 tumour.

Work on `NC1CCCCC1N.O=C([O-])CC(C(=O)[O-])C([O-])C(=O)[O-].[H+].[H+].[Pt+2]` (stereo not drawn) [PHIC, cis-isocitrato (1,2-diaminocyclohexane) platinum (II)] yielded an ILS (sarcoma S 180; 10 mg/kg) of 29%, an ILS (sarcoma S 180; 25 mg/kg) of 46% and an ILS (sarcoma S 180; 50 mg/kg) of 112%. It also gave an ILS (sarcoma S 180; 100 mg/kg) of 171%, a Survivals (sarcoma S 180; S 180, 10 mg/kg i.p. on D1, day 60) of 0% and a Survivals (sarcoma S 180; S 180, 25 mg/kg i.p. on D1, day 60) of 0%. The Survivals (sarcoma S 180; S 180, 50 mg/kg i.p. on D1, day 60) was 20%, the Survivals (sarcoma S 180; S 180, 100 mg/kg i.p. on D1, day 60) was 40% and the “anti-tumour activity (in words)” value (sarcoma S 180; sarcoma S 180) was “Very marked anti-tumor activity; also recorded: exerts the anti-tumour activity”. For the same compound, the LD10 (rat; I.P.) was 61 mg/kg, the LD50 (rat; I.P.) was 143 mg/kg and the LD90 (rat; I.P.) was 278 mg/kg. It also gave an LD10 (rat; I.V.) of 111 mg/kg, an LD50 (rat; I.V.) of 173 mg/kg and an LD90 (rat; I.V.) of 244 mg/kg. The LD50 (rat; P.O.) was > 1 000 mg/Kg, the ILS (leukemia L 1210 [1]; 62.5 mg/kg i.p. on D1) was 26% and the ILS (leukemia L 1210 [1]; 62.5 mg/kg i.p. on D4) was 17%. For the same compound, the ILS (leukemia L 1210 [1]; 125 mg/kg i.p. on D4) was 50%, the ototoxic effect [2] was “No ototoxic effect was detected” and the “anti-tumour activity (in words)” value (leukemia L 1210 [3]; graft intraperitoneal, treatment intravenous) was “active”. For the same compound, the ILS (leukemia L 1210 [3]; 50 mg/kg i.v. on D1) was 25%, the ILS (leukemia L 1210 [3]; 125 mg/kg i.v. on D1) was 41% and the nephrotoxicity ([4]; LD0 level, mice) was “No”. The renal lesion ([4]; at a dose 20 times greater than that of PDD) was “does not cause any renal lesion”, the “renal and hepatic alterations” value ([4]; i.p. at ~LD0 (mg/kg): PDD 8, PAC 100, PHM 50, PHD 4, PHS 5, PHC 120, PHIC 150, D1, D4, D10) was “did not provoke any significant alterations” and the “loss of weight on the 4th day” value (mouse; LD10 dose) was 3.5 g. For the same compound, the “loss of weight on the 4th day” value (mouse; LD50 dose) was 4.3 g, the “toxicity (in words)” value (mouse; mice) was “Extremely low toxicity” and the LD10 (mouse; mouse, I.P.) was 135 mg/kg. For the same compound, the LD50 (mouse; mouse, I.P.) was 236 mg/kg, the LD90 (mouse; mouse, I.P.) was 365 mg/kg and the LD10 (mouse; mouse, I.V.) was 348 mg/kg. The LD50 (mouse; mouse, I.V.) was 421 mg/kg, the LD90 (mouse; mouse, I.V.) was 489 mg/kg and the LD50 (mouse; mouse, P.O.) was > 1 000 mg/Kg. The “LD10 (dose killing 10% of the animals)” value (mouse; mouse, one single injection, Table V) was 153 mg/kg, the ILS (leukemia L 1210 [5]; 5 mg/kg, single i.p. on D1) was 16% and the ILS (leukemia L 1210 [5]; 10 mg/kg, single i.p. on D1) was 40%. For the same compound, the ILS (leukemia L 1210 [5]; 25 mg/kg, single i.p. on D1) was 59%, the ILS (leukemia L 1210 [5]; 50 mg/kg, single i.p. on D1) was 79% and the toxic death (leukemia L 1210 [5]; 100 mg/kg i.p., excluded from ILS calculation) was “one toxic death”. It also gave an ILS (leukemia L 1210 [5]; 100 mg/kg, single injection on D1) of 129%, a Survivals (leukemia L 1210 [5]; L 1210, 5 mg/kg i.p. on D1, day 30) of 0% and a Survivals (leukemia L 1210 [5]; L 1210, 10 mg/kg i.p. on D1, day 30) of 0%. For the same compound, the Survivals (leukemia L 1210 [5]; L 1210, 25 mg/kg i.p. on D1, day 30) was 0%, the Survivals (leukemia L 1210 [5]; L 1210, 50 mg/kg i.p. on D1, day 30) was 0% and the Survivals (leukemia L 1210 [5]; L 1210, 100 mg/kg i.p. on D1, day 30) was 20%. For the same compound, the “anti-tumour activity (in words)” value (leukemia L 1210 [5]; leukemia L 1210) was “Very marked anti-tumor activity; also recorded: exerts the anti-tumour activity” and the “Surviving animals having received L 1210 leukaemia and S 180 sarcoma” value (leukemia L 1210 [5]; summary for L 1210 and S 180) was “Yes”.
